Measurements reported in publication PMC11817060, “Optimizing Therapeutics for Intratumoral Cancer Treatments: Antiproliferative Vanadium Complexes in Glioblastoma” (International Journal of Molecular Sciences, 2025).
Where two headings read alike, the source gives them in different places.

What was measured:
[1] = test system: T98G (glioblastoma multiforme) cells; experiment: MTT cell viability assay (72 h), fresh or aged solutions, T98G; assay type: cell-based, human; details: 72 h incubation
Method: (§1) For viability experiments, the cells were seeded in 96-well plates at an initial density of 1.0 × 10^3 (T98G) or 3.0 × 10^3 (SVG p12) viable cells per well in 100 μL medium and left to attach overnight.
(§2) For all cell assays, freshly prepared stock solutions of the V(V) complexes (10 mM in DMSO) were used. […] The same concentration of DMSO was used in the control experiments. Stock solutions of Na3VO4 (10 mM in MilliQ H2O) and cisplatin (1.0 mM in phosphate-buffered saline) were prepared on the day of the experiments. […] The treatment complexes were applied in a series of nine two-fold dilutions, starting from 100 μM V, plus the vehicle control. Each treatment was composed of six replicate wells with cells and two background wells without cells but containing the same compounds. […] (1.0 mg/mL in complete medium), and incubation was continued for 4–6 h. The medium was then removed, the blue formazan crystals were dissolved in 0.10 mL per well of DMSO, and the absorbance at 600 nm was measured with a Victor V3 plate reader.

[2] = test system: SVG p12 (immortalized non-cancer brain astroglia) cells; experiment: MTT cell viability assay (72 h), fresh or aged solutions, SVG p12; assay type: cell-based, human; details: for IC50: 72 h incubation
Method: as §1, §2

[3] = Homo sapiens, T98G, pre-incubated with medium for 24 h at 310 K before addition to cells (B), read-out: IC50 (T98G), aged solutions (B)

OCCNCC/N=C/c1ccccc1O [Compound H2SHED, N-(salicylideneaminato)-N′-(2-hydroxyethyl)-1,2-ethanediamine]
IC50 [1, 3]: > 100 µM

CC(C)c1cc(O)c(O)c(C(C)C)c1 [DIPCATH2, 3,5-di-iso-propyl-catechol]
IC50 [1, 3]: 54 ± 8 µM

CC(C)(C)c1cc(O)c(O)c(C(C)(C)C)c1 [DTBH2, 3,5-di-tert-butylcatechol]
IC50 [1, 3]: 26 ± 3 µM

[Na+].[Na+].[Na+].[O]=[V]([O-])([O-])[O-] [Na3VO4]
IC50 ([1]; pre-incubated with medium for 24 h at 310 K before addition to cells (B), read-out: IC50 (T98G), aged solutions (B)): 40 ± 3 µM | IC50 ([2]; pre-incubated with medium for 24 h at 310 K before addition to cells (B), read-out: IC50 (SVG p12), aged solutions (B)): 48 ± 4 µM | Effect of subtoxic V(V) concentrations on cell viability ([2]; SVG p12, 72 h assay, aged in the medium for 24 h, not observed in T98G): increase in cell viability

CC(C)c1cc(C(C)C)c(C(C)C)c(O)c1O [TIPCATH2, 3,4,6-tri-iso-propyl catechol]
IC50 [1, 3]: 54 ± 7 µM

N.N.[Cl][Pt][Cl] [cisplatin]
IC50 ([1]; fresh solutions added to cells within 1 min (A), read-out: IC50 (T98G), fresh solutions (A)): 31 ± 1 µM | IC50 ([2]; fresh solutions added to cells within 1 min (A), read-out: IC50 (SVG p12), fresh solutions (A)): 6.1 ± 0.4 µM
